The source of these data is US7612079B2, “2,6,9-substituted purine derivatives and their use in the treatment of proliferative disorders” (Cyclacel Limited, priority 2001, dated 2009).

The nature of data set [1]: Metabolic carbinol-carboxyl oxidation. The conditions noted are these: remark in Table 1.
Data set [2] deals with CH1. Nature of the data set: 72-h MTT proliferation assay, CH1. It is filed as cell-based. The conditions noted are these: Homo sapiens, read-out: IC50 Cell line CH1. The text has this: (§1) Selected compounds from the above examples were subjected to a standard cellular proliferation assay using seven different human tumour cell lines: A2780, A278CisF, CH1, CH1DoxR, HCT116, HT29 and KM12. […] Human tumour cell lines were obtained from the ATCC (American Type Culture Collection, 10801 University Boulevard, Manessas, Va. 20110-2209, USA). The results are shown in Table 1, together with the average IC50 over the seven different cell lines.

The subject of data set [3] is seven different human tumour cell lines: A2780, A278CisF, CH1, CH1DoxR, HCT116, HT29 and KM12. Nature of the data set: 72-h MTT proliferation assay, average over seven cell lines. The data set is classed as cell-based. The conditions noted are these: read-out: IC50 Cell line Average. The text has this:
Selected compounds from the above examples were subjected to a standard cellular proliferation assay using seven different human tumour cell lines: A2780, A278CisF, CH1, CH1DoxR, HCT116, HT29 and KM12.
On the technique in general: Tetrazolium dyes change colour on reduction, which living cells bring about.

Data set [4] has as its system A2780 CisR. Nature of the data set: 72-h MTT proliferation assay, A2780 CisR. The data set is classed as cell-based. The conditions noted are these: Homo sapiens, A2780cisR, read-out: IC50 Cell line A2780 CisR.
Description: as §1

Data set [5] concerns CH1DoxR. Nature of the data set: 72-h MTT proliferation assay, CH1DoxR. It is filed as cell-based. The conditions noted are these: Homo sapiens, read-out: IC50 Cell line CH1DoxR.
Description: as §1

Data set [6] concerns HT29. Nature of the data set: 72-h MTT proliferation assay, HT29. It is filed as cell-based. The conditions noted are these: Homo sapiens, HT-29, read-out: IC50 Cell line HT29.
Description: as §1

Data set [7] concerns A2780. Nature of the data set: 72-h MTT proliferation assay, A2780. The conditions noted are these: Homo sapiens, read-out: IC50 Cell line A2780. The data set is classed as cell-based.
Description: as §1

Data set [8] concerns HCT116. Nature of the data set: 72-h MTT proliferation assay, HCT116. The conditions noted are these: Homo sapiens, HCT-116, read-out: IC50 Cell line HCT116. It is filed as cell-based.
Description: as §1

Data set [9] concerns KM12. Nature of the data set: 72-h MTT proliferation assay, KM12. The data set is classed as cell-based. The conditions noted are these: Homo sapiens, read-out: IC50 Cell line KM12.
Description: as §1

Data set [10] relates to A549, HT29, Saos-2. Nature of the data set: In vitro anti-proliferative activity, 72-h MTT, A549, HT29, Saos-2. It is filed as cell-based. The conditions noted are these: read-out: In vitro anti-proliferative activity (72-h MTT IC50), Cell lines: A549, HT29, Saos-2.
Data set [11] has as its target T1, mouse ERK-2 (Mus musculus, UniProt P63085).
T1 construct: purchased Upstate Biotechnologies
Nature of the data set: ERK-2 kinase assay (MBP phosphorylation). The data set is classed as biochemical. The conditions noted are these: Table 2; read-out: Kinase inhibition ERK2 IC50. As for the experimental part: ERK-2 kinase activity was measured by the incorporation of radioactive phosphate into myelin basic protein (MBP), catalysed by purified mouse ERK-2 (Upstate Biotechnologies). The reaction mixture (total volume 50 μL) consisted of 20 mM MOPS, pH 7.0,25 mM β-glycerophosphate, 5 mM EGTA, 1 mM DTT, 1 mM Na3VO4, 10 mM MgCl2, 100 μM ATP, 0.2 μCi [γ-^32P]-ATP.

Data set [12] has as its target T2, cyclic AMP-dependent kinase (PKA) catalytic subunit (Homo sapiens, UniProt P17612).
T2 construct: purchased Calbiochem 539487
Nature of the data set: PKA kinase assay (Kemptide phosphorylation). The data set is classed as biochemical. The conditions noted are these: Table 2; read-out: Kinase inhibition PKA IC50. The protocol:
The reaction mixture (total volume 50 μl) consisted of 20 mM MOPS, pH 7.2, 25 mM β-glycerophosphate, 5 mM EGTA, 1 mM DTT, 1 mM Na3VO4, 10 mM MgCl2, 100 μM ATP, 0.2 μCi [γ-^32P]-ATP.

The nature of data set [13]: Aqueous solubility. It is filed as physicochemical. The conditions noted are these: remark in Table 1; versus Roscovitine. From the text:
[…]. […] […]

The target in data set [14] is CDK4/cyclin D1 (Homo sapiens, UniProt P11802). Nature of the data set: CDK4/cyclin D1 kinase assay (GST-Rb phosphorylation). The data set is classed as biochemical. The conditions noted are these: Table 2; read-out: Kinase inhibition CDK4/cyclin D1 IC50. As for the experimental part: Assays for CDK2/cyclin E kinase, CDK1/cyclin B and CDK4/cyclin D1 may be carried out by monitoring phosphorylation of GST-Rb in an appropriate system. […] The phosphorylation reaction mixture (total volume 40 μl) consisted of 50 mM HEPES pH 7.4, 20 mM MgCl2, 5 mM EGTA, 2 mM DTT, 20 mM β-glycerophosphate, 2 mM NaF, 1 mM Na3VO4, Protease Inhibitors Cocktail (Sigma, see above), BSA 0.5 mg/ml, 1 μg purified enzyme complex, 10 μl of GST-Rb-Sepharose-beads, 100 μM ATP, 0.2 μCi ^32P-ATP. The reaction is carried out for 30 min at 30° C. at constant shaking. At the end of this period 100 μl of 50 mM HEPES, pH 7.4 and 1 mM ATP is added to each well and the total volume transferred onto GFC filtered plate. The plate is washed 5 times with 200 μl of 50 mM HEPES, pH 7.4 and 1 mM ATP. To each well was added 50 μl scintillant liquid and the radioactivity of the samples is measured on Scintilation counter (Topcount, HP). The IC50 values of different peptides were calculated using GraFit software.

The target in data set [15] is CDK7/cyclin H (Homo sapiens, UniProt P50613). Nature of the data set: CDK7/cyclin H kinase inhibition. It is filed as biochemical. The conditions noted are these: Table 2.
The nature of data set [16]: Pharmacokinetic analysis in mice.

The structures appear in SMILES notation. A value given as a limit tells only on which side of the number the result lay.

T1 sequence (P63085 whole entry): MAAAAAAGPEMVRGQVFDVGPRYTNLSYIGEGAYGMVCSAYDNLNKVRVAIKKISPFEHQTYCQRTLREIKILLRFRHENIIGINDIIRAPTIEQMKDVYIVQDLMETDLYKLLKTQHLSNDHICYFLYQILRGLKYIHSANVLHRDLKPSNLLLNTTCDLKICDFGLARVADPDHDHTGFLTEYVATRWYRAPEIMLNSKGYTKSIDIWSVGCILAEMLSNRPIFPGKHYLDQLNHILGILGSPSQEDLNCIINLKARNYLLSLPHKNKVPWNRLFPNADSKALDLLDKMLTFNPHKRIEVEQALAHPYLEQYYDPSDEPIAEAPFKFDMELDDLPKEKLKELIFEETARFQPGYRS
Sequence of CDK7/cyclin H (P50613 whole entry, species assumed): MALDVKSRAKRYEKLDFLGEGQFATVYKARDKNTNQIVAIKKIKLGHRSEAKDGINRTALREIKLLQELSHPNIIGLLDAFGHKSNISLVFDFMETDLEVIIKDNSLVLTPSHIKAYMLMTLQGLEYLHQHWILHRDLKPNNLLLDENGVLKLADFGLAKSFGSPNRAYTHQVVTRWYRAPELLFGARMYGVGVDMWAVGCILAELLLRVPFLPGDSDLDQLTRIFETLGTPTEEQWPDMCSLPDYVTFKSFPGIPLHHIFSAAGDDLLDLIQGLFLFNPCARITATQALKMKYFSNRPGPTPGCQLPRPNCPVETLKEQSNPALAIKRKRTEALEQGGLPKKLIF
Sequence of CDK7/cyclin H (P51946 whole entry partner, species assumed): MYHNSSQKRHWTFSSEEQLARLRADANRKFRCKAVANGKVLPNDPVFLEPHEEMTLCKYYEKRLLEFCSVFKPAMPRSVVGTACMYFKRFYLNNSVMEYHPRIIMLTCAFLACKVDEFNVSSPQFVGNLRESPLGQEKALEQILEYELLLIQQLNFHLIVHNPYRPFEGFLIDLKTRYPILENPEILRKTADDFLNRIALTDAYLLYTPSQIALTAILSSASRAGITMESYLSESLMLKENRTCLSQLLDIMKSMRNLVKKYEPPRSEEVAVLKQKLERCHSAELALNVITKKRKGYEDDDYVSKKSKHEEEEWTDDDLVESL
Sequence of CDK4/cyclin D1 (P11802 whole entry, species assumed): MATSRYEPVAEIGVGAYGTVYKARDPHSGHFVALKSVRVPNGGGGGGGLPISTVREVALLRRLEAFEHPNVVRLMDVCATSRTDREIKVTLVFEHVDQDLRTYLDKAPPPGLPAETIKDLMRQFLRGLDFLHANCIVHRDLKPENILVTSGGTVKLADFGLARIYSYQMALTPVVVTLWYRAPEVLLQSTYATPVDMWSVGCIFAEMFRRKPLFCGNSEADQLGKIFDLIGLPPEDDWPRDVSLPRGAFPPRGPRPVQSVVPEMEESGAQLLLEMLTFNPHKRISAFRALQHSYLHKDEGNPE
Sequence of CDK4/cyclin D1 (P24385 whole entry partner, species assumed): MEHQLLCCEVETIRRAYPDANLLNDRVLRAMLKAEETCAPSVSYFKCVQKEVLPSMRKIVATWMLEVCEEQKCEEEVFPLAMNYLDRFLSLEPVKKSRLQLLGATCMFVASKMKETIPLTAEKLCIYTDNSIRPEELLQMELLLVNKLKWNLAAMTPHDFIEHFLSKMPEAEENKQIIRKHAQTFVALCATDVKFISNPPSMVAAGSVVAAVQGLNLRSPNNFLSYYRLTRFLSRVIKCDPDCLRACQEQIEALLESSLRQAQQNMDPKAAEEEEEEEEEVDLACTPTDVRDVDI

In the case of `CC[C@@H](Nc1nc(NCc2ccccc2)c2ncn(C(C)C)c2n1)C(C)O` (mixture of isomers) [7 (2RS,3R), (2RS, 3R)-3-(6-Benzylamino-9-isopropyl-9H-purin-2-ylamino)-pentan-2-ol], in data set [1], the “PK remark: carbinol metabolism” value is given as “Blocked carbinol metabolism”. Besides, the IC50 came out at 17 µM in [2]; 13.8 µM in data set [3]; 15 µM in [4]; 12 µM in [5]; 15 µM in data set [6]; 6.6 µM in data set [7]. The IC50 is 12 µM in [8] and 19 µM in data set [9].
As a reminder, the melting point is the temperature of the solid-liquid transition. The compound `CC[C@H](CO)Nc1nc(NCc2ccccn2)c2ncn(C(C)C)c2n1` [Example 5, (R)-2-{9-Isopropyl-6-[(pyridin-2:ylmethyl)-amino]-9H-purin-2:ylamino}-butan-1-ol] gave a melting point of 30 to 35 °C. The IC50 in data set [2] stood at 26 µM. The IC50 in data set [3] turned out to be 31 µM. Also, the IC50 in data set [4] turned out to be 28 µM. Also, in data set [10], the IC50 was 4.5 µM. Also, the IC50 in data set [11] was determined as 9.5 µM. In data set [12], the IC50 is > 50 µM. Besides, the IC50 in [5] amounted to 23 µM. Moreover, the IC50 in data set [6] amounted to 54 µM. In data set [7], the IC50 came out at 22 µM. The “PK remark: aqueous solubility” value in data set [13] is recorded as “Improved aqueous solubility”. The IC50 in data set [8] came out at 26 µM. Further, the IC50 in data set [9] was 38 µM.
`CC[C@H](CO)Nc1nc(NCc2ccncc2)c2ncn(C(C)C)c2n1` [Example 6, (R)-2-{9-Isopropyl-6-[(pyridin-4-ylmethyl)-amino]-9H-purin-2-ylamino}-butan-1-ol]: the melting point was 105 to 106 °C. Besides, the IC50 in [14] was determined as 30 µM. Further, the IC50 in data set [2] was found to be 8.2 µM. Besides, in data set [3], the IC50 was 17.3 µM. In data set [4], the IC50 was determined as 22 µM. Further, the IC50 in data set [10] was 17 µM. Moreover, the IC50 in data set [12] was > 50 µM. Moreover, in data set [5], the IC50 is 28 µM. This compound also registered an IC50 in data set [15] of 0.74 µM. In [6], the IC50 amounted to 23 µM. Also, the IC50 in data set [7] worked out at 23 µM. The “PK remark: aqueous solubility” value in [13] is on record as “Improved aqueous solubility”. Besides, in [8], the IC50 came out at 10 µM. The IC50 in data set [9] came out at 7 µM.
As to `CC[C@@H](Nc1nc(NCc2ccccc2)c2ncn(C(C)C)c2n1)[C@H](C)O` [Example 7 (2S,3R), (2S, 3R)-3-(6-Benzylamino-9-isopropyl-9H-purin-2-ylamino)-pentan-2-ol], the “PK remark: carbinol metabolism” value in data set [1] is “Blocked carbinol metabolism”. In addition, the IC50 in data set [2] was 5 µM; in data set [3] it was 6.9 µM; in [4], 3.8 µM; in data set [5] it was 4.6 µM; in data set [7] it was 6.4 µM; in data set [8] it was 5.4 µM. In addition, in data set [9], the IC50 came out at 5.4 µM.
By half-life is commonly meant the time in which the quantity being followed falls by half. Lower therefore signals rapid decline. Take `CC[C@H](CO)Nc1nc(NCc2ccccc2)c2ncn(C(C)C)c2n1` [Roscovitine]: in [16] (mice, comparative value), the AUC amounted to 75454 nh-h/mL. Moreover, in [16] (mouse, in vivo), the half-life was 2.7 h.
